Results published in ChEMBL document CHEMBL1157844, “QSAR study of flavonoids and biflavonoids as influenza H1N1 virus neuraminidase inhibitors” (Eur J Med Chem, 2010).

How the values were obtained:
[1] = target: Neuraminidase (Influenza A virus (A/Puerto Rico/8/1934(H1N1))) (UniProt P03468); test: (§1) Inhibition of Influenza A PR/8/34 H1N1 virus neuraminidase activity by MUN-ANA substrate based fluorimetric assay; design: unit not given here
[2] = target: Neuraminidase (Influenza A virus (A/Puerto Rico/8/1934(H1N1)), UniProt P03468); test: as §1
Sequence of Neuraminidase (Influenza A virus (A/Puerto Rico/8/1934(H1N1)), UniProt P03468) (P03468 whole entry): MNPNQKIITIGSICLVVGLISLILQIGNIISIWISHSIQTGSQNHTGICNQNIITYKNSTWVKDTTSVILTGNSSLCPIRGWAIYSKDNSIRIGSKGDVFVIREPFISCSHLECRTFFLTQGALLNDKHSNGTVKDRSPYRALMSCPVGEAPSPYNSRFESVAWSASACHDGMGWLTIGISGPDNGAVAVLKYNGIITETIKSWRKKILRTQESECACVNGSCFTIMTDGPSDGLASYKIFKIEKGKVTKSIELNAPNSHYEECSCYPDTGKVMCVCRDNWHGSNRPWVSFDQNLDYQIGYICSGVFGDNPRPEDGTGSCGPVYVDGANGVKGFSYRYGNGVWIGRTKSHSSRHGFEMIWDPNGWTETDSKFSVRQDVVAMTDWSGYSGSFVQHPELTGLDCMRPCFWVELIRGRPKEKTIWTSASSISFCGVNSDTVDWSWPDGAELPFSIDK

Sequence of Neuraminidase (Influenza A virus (A/Puerto Rico/8/1934(H1N1))) (P03468 whole entry): as above

Structure (SMILES)	logIC50 [1]	IC50 [2] [µM]
O=C1/C(=C/c2ccc(O)c(O)c2)Oc2cc(O)ccc21 [SULFURETIN]	0.903	29.6
COc1ccc(-c2cc(=O)c3c(O)c(Oc4ccc(-c5cc(=O)c6c(O)cc(OC)cc6o5)cc4)c(O[C@]4(C(=O)O)C[C@H](O)[C@@H](NC(C)=O)[C@H]([C@@H](O)[C@@H](O)CO)O4)cc3o2)cc1	1.28	22.3
O=c1cc(-c2ccc(O)c(O)c2)oc2cc(O)cc(O)c12 [LUTEOLIN]	0.984	33.7
O=C1/C(=C\c2ccccc2)Oc2cc(O)ccc21	1.23	72
COc1c(O)cc(O)c2c(=O)cc(-c3ccc(O)cc3)oc12 [4'-HYDROXYWOGONIN]	1.12	43.8
O=c1c(-c2ccc(O)cc2)coc2cc(O)cc(O)c12 [GENISTEIN]	1.32	77.1
O=c1c(O)c(-c2cc(O)c(O)c(O)c2)oc2cc(O)cc(O)c12 [MYRICETIN]	1.42	82.6
O=c1c(O)c(-c2ccc(O)cc2)oc2cc(O)cc(O)c12 [KAEMPFEROL]	1.23	58.6
O=c1c(-c2ccc(O)cc2)coc2cc(O)ccc12 [DAIDZEIN]	0.975	37.1
O=C(Oc1cc(O)c2c(c1)OC(c1cc(O)c(O)c(O)c1)CC2)c1cc(O)c(O)c(O)c1 (stereo unspecified)	1.2	35.5
O=c1cc(-c2ccc(O)cc2)oc2cc(O)c(O)c(O)c12 [SCUTELLAREIN]	1.16	50.6
O=c1cc(-c2ccc(O)cc2)oc2cc(O)cc(O)c12 [APIGENIN]	0.932	31.6
COc1c(O)cc2oc(-c3ccc(O)cc3)cc(=O)c2c1O [HISPIDULIN]	1.14	46.3
C[C@@H]1O[C@@H](OC[C@H]2O[C@@H](Oc3c(-c4ccc(O)c(O)c4)oc4cc(O)cc(O)c4c3=O)[C@H](O)[C@@H](O)[C@@H]2O)[C@H](O)[C@H](O)[C@H]1O [RUTIN]	1.49	51
O=c1cc(-c2ccc(O)cc2)oc2c([C@@H]3O[C@H](CO)[C@@H](O)[C@H](O)[C@H]3O)c(O)cc(O)c12 [VITEXIN]	1.32	48.2
COc1cc(O)c2c(=O)c(O)c(-c3ccc(O)cc3)oc2c1 [RHAMNOCITRIN]	1.19	51.5
O=C1/C(=C\c2ccc(O)cc2)Oc2cc(O)ccc21	0.748	22
COc1cc(O)c2c(=O)cc(-c3ccc(OC)c(-c4c(O)cc(O)c5c(=O)cc(-c6ccc(O)cc6)oc45)c3)oc2c1 [GINKGETIN]	1.74	97.1
O=c1c(O[C@H]2O[C@@H](CO)[C@H](O)[C@@H](O)[C@@H]2O[C@@H]2OC[C@@H](O)[C@H](O)[C@H]2O)c(-c2ccc(O)cc2)oc2cc(O)cc(O)c12 (stereo in doubt)	1.39	42.2
O=c1cc(-c2ccc(Oc3c(O)cc4oc(-c5ccc(O)cc5)cc(=O)c4c3O)cc2)oc2cc(O)cc(O)c12 [HINOKIFLAVONE]	1.62	77.6
O=c1cc(-c2ccc(O)c(O)c2)oc2cc(O[C@@H]3O[C@H](CO)[C@@H](O)[C@H](O)[C@H]3O)cc(O)c12 [GALUTEOLIN]	1.33	47.4
O=c1cc(-c2ccccc2)oc2cc(O)cc(O)c12 [CHRYSIN]	1.06	45.7
O=c1c(O)c(-c2ccc(O)c(O)c2)oc2cc(O)cc(O)c12 [QUERCETIN]	1.25	58.4
